Measured values from patent publication US20210070748A1, “INHIBITORS OF BRUTONS TYROSINE KINASE” (Pharmacyclics LLC, priority 2015, published 2021).

What was measured:
Format in all cases: biochemical
[1] = target: EGFR (Homo sapiens, UniProt P00533); experiment: Inhibition of a panel of kinases, in vitro HotSpot kinase assay: EGFR; details: D-compounds panel data; 1 μM ATP
Protocol: (§1) The degree of inhibition of a panel of kinases is determined using the in vitro HotSpot kinase assay (purified enzymes, ^33P-ATP, an appropriate substrate and 1 μM ATP).

[2] = target: LCK (Homo sapiens, UniProt P06239); experiment: Inhibition of a panel of kinases, in vitro HotSpot kinase assay: LCK; details: D-compounds panel data; 1 μM ATP; read-out: IC50 LCK
[3] = target: T1, TEC (Homo sapiens, UniProt P42680); experiment: Inhibition of a panel of kinases, in vitro HotSpot kinase assay: TEC; details: D-compounds panel data; 1 μM ATP
T1 sequence (P42680 1-631): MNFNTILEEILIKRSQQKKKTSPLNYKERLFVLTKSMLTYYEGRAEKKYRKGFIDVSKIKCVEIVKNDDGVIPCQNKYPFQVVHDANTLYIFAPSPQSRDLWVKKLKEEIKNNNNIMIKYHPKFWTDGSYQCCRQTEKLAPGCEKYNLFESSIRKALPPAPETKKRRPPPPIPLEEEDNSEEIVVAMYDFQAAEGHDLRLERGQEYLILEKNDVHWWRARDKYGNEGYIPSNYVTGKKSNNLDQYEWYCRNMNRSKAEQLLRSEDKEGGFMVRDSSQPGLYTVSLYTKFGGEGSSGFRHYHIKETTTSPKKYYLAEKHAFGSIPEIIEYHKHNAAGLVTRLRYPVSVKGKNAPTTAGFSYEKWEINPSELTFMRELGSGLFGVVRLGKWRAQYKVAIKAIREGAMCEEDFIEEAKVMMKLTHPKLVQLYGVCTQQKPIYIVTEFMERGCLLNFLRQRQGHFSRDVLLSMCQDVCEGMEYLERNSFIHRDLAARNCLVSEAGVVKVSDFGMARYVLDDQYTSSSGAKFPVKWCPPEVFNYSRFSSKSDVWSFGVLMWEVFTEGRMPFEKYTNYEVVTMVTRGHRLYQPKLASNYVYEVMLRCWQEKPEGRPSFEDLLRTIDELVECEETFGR
Protocol: as §1

[4] = target: T2, JAK3 (Homo sapiens, UniProt P52333); experiment: Inhibition of a panel of kinases, in vitro HotSpot kinase assay: JAK3; details: D-compounds panel data; 1 μM ATP; read-out: IC50 JAK3
T2 sequence (P52333 1-1124): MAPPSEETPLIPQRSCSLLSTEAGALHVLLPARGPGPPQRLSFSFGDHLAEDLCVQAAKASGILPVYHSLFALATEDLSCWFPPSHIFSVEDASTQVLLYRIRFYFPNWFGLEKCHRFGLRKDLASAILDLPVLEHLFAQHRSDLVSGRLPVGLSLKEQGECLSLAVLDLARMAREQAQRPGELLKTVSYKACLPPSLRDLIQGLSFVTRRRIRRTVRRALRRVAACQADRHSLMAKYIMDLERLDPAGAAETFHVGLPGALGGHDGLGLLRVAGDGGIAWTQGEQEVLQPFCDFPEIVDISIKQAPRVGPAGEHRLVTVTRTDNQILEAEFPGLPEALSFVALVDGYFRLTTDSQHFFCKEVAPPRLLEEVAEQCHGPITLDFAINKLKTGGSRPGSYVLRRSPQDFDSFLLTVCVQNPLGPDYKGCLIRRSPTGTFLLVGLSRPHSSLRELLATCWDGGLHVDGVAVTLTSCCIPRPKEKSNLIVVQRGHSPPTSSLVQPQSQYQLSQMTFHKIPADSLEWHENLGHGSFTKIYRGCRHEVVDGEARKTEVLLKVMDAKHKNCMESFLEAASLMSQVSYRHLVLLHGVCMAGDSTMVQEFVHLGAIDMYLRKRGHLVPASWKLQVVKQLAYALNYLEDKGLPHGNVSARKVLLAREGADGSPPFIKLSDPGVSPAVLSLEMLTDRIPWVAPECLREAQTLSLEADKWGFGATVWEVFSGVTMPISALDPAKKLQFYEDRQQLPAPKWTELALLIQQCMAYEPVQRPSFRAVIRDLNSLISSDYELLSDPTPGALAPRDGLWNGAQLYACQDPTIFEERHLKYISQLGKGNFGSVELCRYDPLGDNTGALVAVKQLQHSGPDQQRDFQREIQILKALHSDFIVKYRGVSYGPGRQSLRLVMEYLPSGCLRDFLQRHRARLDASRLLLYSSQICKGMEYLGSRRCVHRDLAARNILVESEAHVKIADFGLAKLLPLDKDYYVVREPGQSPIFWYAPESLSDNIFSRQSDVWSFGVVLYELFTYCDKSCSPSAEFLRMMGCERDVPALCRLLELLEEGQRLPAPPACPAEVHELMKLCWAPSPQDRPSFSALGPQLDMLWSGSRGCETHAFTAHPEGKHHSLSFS

Sequence of EGFR (P00533 25-1210): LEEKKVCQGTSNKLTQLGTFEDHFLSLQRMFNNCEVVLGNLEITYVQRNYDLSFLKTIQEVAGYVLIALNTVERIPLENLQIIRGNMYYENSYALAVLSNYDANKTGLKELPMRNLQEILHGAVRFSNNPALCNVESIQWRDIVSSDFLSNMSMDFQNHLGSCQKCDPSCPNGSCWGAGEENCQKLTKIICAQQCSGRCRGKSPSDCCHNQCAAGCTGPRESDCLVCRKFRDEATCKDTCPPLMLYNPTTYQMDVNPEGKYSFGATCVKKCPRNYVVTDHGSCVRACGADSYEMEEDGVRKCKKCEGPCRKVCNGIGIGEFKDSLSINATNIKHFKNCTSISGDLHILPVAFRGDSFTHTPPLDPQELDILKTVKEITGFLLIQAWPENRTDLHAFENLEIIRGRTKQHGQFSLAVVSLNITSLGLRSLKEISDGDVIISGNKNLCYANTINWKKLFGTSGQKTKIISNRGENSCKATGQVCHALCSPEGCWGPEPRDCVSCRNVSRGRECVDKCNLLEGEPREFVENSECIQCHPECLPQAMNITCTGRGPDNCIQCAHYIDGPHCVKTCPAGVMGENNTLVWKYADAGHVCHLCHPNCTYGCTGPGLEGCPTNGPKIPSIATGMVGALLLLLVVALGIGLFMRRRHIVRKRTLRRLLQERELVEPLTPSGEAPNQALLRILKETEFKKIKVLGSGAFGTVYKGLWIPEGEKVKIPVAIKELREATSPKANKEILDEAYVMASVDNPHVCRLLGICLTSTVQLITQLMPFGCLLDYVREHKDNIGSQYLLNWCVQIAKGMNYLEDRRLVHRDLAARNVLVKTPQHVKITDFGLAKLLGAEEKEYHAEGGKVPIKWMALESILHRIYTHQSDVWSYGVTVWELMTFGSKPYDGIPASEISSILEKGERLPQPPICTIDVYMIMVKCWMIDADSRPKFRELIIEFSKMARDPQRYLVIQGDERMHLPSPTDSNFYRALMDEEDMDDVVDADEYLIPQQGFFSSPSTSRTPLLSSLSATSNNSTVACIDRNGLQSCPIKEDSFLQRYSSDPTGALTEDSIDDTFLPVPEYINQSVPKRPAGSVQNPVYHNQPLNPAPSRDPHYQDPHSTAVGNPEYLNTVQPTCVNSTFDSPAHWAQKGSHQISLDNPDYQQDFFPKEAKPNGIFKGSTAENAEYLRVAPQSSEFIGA
Sequence of LCK (P06239 whole entry): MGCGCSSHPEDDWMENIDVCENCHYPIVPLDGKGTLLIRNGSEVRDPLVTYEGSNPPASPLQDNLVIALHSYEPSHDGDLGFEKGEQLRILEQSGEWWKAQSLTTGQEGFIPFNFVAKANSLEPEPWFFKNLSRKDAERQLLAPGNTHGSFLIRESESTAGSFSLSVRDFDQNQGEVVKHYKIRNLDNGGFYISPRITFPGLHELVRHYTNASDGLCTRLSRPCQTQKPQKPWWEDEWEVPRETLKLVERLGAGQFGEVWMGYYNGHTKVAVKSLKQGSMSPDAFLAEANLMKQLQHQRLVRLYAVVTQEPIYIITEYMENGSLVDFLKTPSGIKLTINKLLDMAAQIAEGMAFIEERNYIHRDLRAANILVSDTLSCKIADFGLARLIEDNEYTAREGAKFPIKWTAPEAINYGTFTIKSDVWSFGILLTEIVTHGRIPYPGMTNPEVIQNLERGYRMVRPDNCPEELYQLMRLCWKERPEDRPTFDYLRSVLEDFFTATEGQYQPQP

Compound	IC50 [1] [nM]	IC50 [2] [nM]	IC50 [3] [nM]	IC50 [4] [nM]
Cn1cc(Nc2nc(N3C4CCC(NC(=O)c5ccc(C6CC6)cc5)C3CC4)cnc2C(N)=O)cn1 (single isomer, unassigned) [Example D-199, 5-[2-(4-cyclopropylbenzamido)-8-azabicyclo[3.2.1]octan-8-yl]-3-[(1-methyl-1H-pyrazol-4-yl)amino]pyrazine-2-carboxamide]	> 10000	> 10000	1000 to 10000	1000 to 10000
Cn1cc(Nc2nc(N3C4CCC(NC(=O)c5ccc(C6CC6)cc5)C3CC4)cnc2C(N)=O)cn1 (single isomer, unassigned) [Example D-200, 5-[2-(4-cyclopropylbenzamido)-8-azabicyclo[32.1]octan-8-yl]-3-[(1-methyl-1H-pyrazol-4-yl)amino]pyrazine-2-carboxamide]	1000 to 10000	1000 to 10000	1000 to 10000	> 10000
Cn1cc(Nc2nc(N3C4CCC(NC(=O)c5ccc(C6CC6)cc5)C3CC4)cnc2C(N)=O)cn1 (single isomer, unassigned) [Example D-201, 5-[2-(4-cyclopropylbenzamido)-8-azabicyclo[3.2.1]octan-8-yl]-3-[(1-methyl-1H-pyrazol-4-yl)amino]pyrazine-2-carboxamide]	1000 to 10000	100 to 1000	≤ 10	1000 to 10000
Cn1cc(Nc2nc(N3C4CCC(NC(=O)c5ccc(C6CC6)cc5)C3CC4)cnc2C(N)=O)cn1 (single isomer, unassigned) [Example D-202, 5-[2-(4-cyclopropylbenzamido)-8-azabicyclo[3.2. I]octan-8-yl]-3-[(1-methyl-1H-pyrazol-4-yl)amino]pyrazine-2-carboxamide]	> 10000	10 to 100	100 to 1000	> 10000
Cn1cc(Nc2nc(N3CC(NC(=O)c4ccc(C5CC5)cc4)CC(F)(F)C3)cnc2C(N)=O)cn1 (stereo in doubt) [Example D-190, 5-[(5S)-5-(4-cyclopropylbenzamido)-3,3-difluoropiperidin-1-yl]-3-[(1-methyl-1H-pyrazol-4-yl)amino]pyrazine-2-carboxamide]	1000 to 10000	100 to 1000	100 to 1000	1000 to 10000
Cc1cc(Nc2nc(N3CCC[C@@H](NC(=O)N4Cc5ccccc5C4=O)C3)cnc2C(N)=O)sn1 [Example D-15, N-[(3R)-1-{5-carbamoyl-6-[(3-methyl-1,2-thiazol-5-yl)amino]pyrazin-2-yl}piperidin-3-yl]-1-oxo-2,3-dihydro-1H-isoindole-2-carboxamide]	100 to 1000	10 to 100	10 to 100	1000 to 10000
CN1CCN(C(=O)c2ccc(Nc3nc(N4CCC[C@@H](n5ccc6cc(C7CC7)ccc6c5=O)C4)cnc3C(N)=O)cc2)CC1 [Example D-169, 5-[(3R)-3-(6-cyclopropyl-1-oxo-1,2-dihydroisoquinolin-2-yl)piperidin-1-yl]-3-{[4-(4-methylpiperazine-1-carbonyl)phenyl]amino}pyrazine-2-carboxamide]	100 to 1000	100 to 1000	10 to 100	100 to 1000
C/C=C/c1ccc(C(=O)N[C@@H]2CCCN(c3cnc(C(N)=O)c(Nc4cc(C)ns4)c3)[C@@H]2C)c(F)c1 [Example D-170, 5-[(2R,3R)-3-{2-fluoro-4-[(1E)-prop-1-en-1-yl]benzamido}-2-methylpiperidin-1-yl]-3-[(3-methyl-1,2-thiazol-5-yl)amino]pyridine-2-carboxamide]	100 to 1000	10 to 100	100 to 1000	1000 to 10000

The next lines start with the values.

IC50 [1] [nM]	IC50 [2] [nM]	IC50 [3] [nM]	IC50 [4] [nM]	Compound
1000 to 10000	100 to 1000	≤ 10	1000 to 10000	C[C@@H]1[C@H](NC(=O)c2ccc(C(C)(O)C(F)(F)F)cc2)CCCN1c1cnc(C(N)=O)c(Nc2cnn(C)c2)n1 (single isomer, unassigned) [Example D-213]
100 to 1000	10 to 100	≤ 10	1000 to 10000	C[C@@H]1[C@H](NC(=O)c2ccc(C(C)(O)C(F)(F)F)cc2)CCCN1c1cnc(C(N)=O)c(Nc2cnn(C)c2)n1 (single isomer, unassigned) [Example D-214]
100 to 1000	10 to 100	10 to 100	100 to 1000	C[C@@H]1[C@H](NC(=O)c2ccc(C3CC3)cc2F)CCCN1c1cnc(C(N)=O)c(Nc2ccc(N3CCN(C)C[C@@H]3C)cc2)n1 [Example D-12, 5-[(2R,3R)-3-(4-cyclopropyl-2-fluorobenzamido)-2-methylpiperidin-1-yl]-3-({4-[(2S)-2,4-dimethylpiperazin-1-yl]phenyl}amino)pyrazine-2-carboxamide]
1000 to 10000	100 to 1000	100 to 1000	1000 to 10000	C[C@@H]1[C@H](NC(=O)c2ccc(C3CC3)cc2F)CCCN1c1cnc(C(N)=O)c(Nc2ccc(N3CCN(C)CC3)nc2)n1 [Example D-13, 5-[(2R,3R)-3-(4-cyclopropyl-2-fluorobenzamido)-2-methylpiperidin-1-yl]-3-{[6-(4-methylpiperazin-1-yl)pyridin-3-yl]amino}pyrazine-2-carboxamide]
1000 to 10000	10 to 100	10 to 100	1000 to 10000	C[C@@H]1[C@H](NC(=O)c2ccc(C(C)(C)C)cc2)CCCN1c1cnc(C(N)=O)c(Nc2ccc(N3CCN(C)CC3)cc2)n1 [Example D-14, 5-[(2R,3R)-3-(4-tert-butylbenzamido)-2-methylpiperidin-1-yl]-3-{[4-(4-methylpiperazin-1-yl)phenyl]amino}pyrazine-2-carboxamide]
100 to 1000	10 to 100	10 to 100	1000 to 10000	C[C@@H]1[C@H](NC(=O)c2ccc(C3CC3)cc2Cl)CCCN1c1cnc(C(N)=O)c(Nc2ccc(N3CCN(C)CC3)cc2)n1 [Example D-16, 5-[(2R,3R)-3-(2-chloro-4-cyclopropylbenzamido)-2-methylpiperidin-1-yl]-3-{[4-(4-methylpiperazin-1-yl)phenyl]amino}pyrazine-2-carboxamide]
1000 to 10000	100 to 1000	100 to 1000	1000 to 10000	C[C@@H]1[C@H](NC(=O)c2ccc(C3CC3)c(Cl)c2)CCCN1c1cnc(C(N)=O)c(Nc2ccc(N3CCN(C)CC3)cc2)n1 [Example D-17, 5-[(2R,3R)-3-(3-chloro-4-cyclopropylbenzamido)-2-methylpiperidin-1-yl]-3-{[4-(4-methylpiperazin-1-yl)phenyl]amino}pyrazine-2-carboxamide]
1000 to 10000	100 to 1000	10 to 100	1000 to 10000	C[C@@H]1[C@H](NC(=O)c2ccc(C3CC3)nc2)CCCN1c1cnc(C(N)=O)c(Nc2cnn(C)c2)n1 [Example D-18, 5-[(2R,3R)-3-(6-cyclopropylpyridine-3-amido)-2-methylpiperidin-1-yl]-3-[(1-methyl-1H-pyrazol-4-yl)amino]pyrazine-2-carboxamide]
